Reference: patent US20220331353A1, “SYNERGISTIC COMPOSITIONS AND METHODS TO INCREASE VASCULAR NITRIC OXIDE TO TREAT ENDOTHELIAL DYSFUNCTION AND RELATED CONDITIONS” (Calroy Health Sciences, LLC, priority 2021, published 2022)

Assay: Transdermal hydrogen sulfide on forearm after N-acetyl cysteine, Interscan Halimeter PLUS
Format: in vivo, human
Conditions: 600 mg oral; for Transdermal Hydrogen Sulfide H2S: adult male, forearm
Method: We hypothesized that formula 2 sustained a higher level of bioavailable NO than formula 1 because N-acetyl cysteine generates hydrogen sulfide in the body. To test this hypothesis, we measured transdermal hydrogen sulfide on the surface of the forearm after an adult subject ingested 600 mg of N-acetyl cysteine. The test was performed using Interscan Halimeter® PLUS with a simple modification of sample collection method. Hydrogen sulfide, the primary volatile sulfur compounds detectable by the device, was measured in triplicate for 6 hours after dosing with N-acetyl cysteine (Table IV). […] The data support a mechanism wherein N-acetyl cysteine increases hydrogen sulfide production that boosts NO availability and activity in the body.

CC(=O)N[C@@H](CS)C(=O)O [N-acetyl cysteine]
Transdermal Hydrogen Sulfide H2S (0 h): 16 ppb
Transdermal Hydrogen Sulfide H2S (2 h): 27 ppb
Transdermal Hydrogen Sulfide H2S (3 h): 46 ppb
Transdermal Hydrogen Sulfide H2S (4 h): 51 ppb
Transdermal Hydrogen Sulfide H2S (5 h): 40 ppb
Transdermal Hydrogen Sulfide H2S (6 h): 16 ppb
transdermal hydrogen sulfide (peak at 4 hours): 51 ppb
transdermal hydrogen sulfide (starting value): 16 ppb
transdermal hydrogen sulfide (within 2 hours): 27 ppb
